Source: PubChem BioAssay AID1918936 (Molecular Pharmacology Branch, DTP, NCI, 2023)
Values joined by “and” are separate entries in the source; they are usually repeats but may differ in a detail not shown here. Equal entries are not always repeated.

Test system: 349418-098-R-PDC complex spheroid viability
Test: Anticancer human tumor 349418-098-R-PDC patient-derived lung adenocarcinoma cell line growth inhibition
Settings: for viability, T/C: stronger effect = lower value
In short: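 Complex spheroids of tumor cells with HUVEC and human MSCs, exposed to iadademstat combined with other agents. Each agent tested in half-log steps from near clinical Cmax (else 10 microM top), DMSO ≤0.25%.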

[1] = curve of first compound, second compound 0.1 µM
[2] = curve of first compound, second compound 0.316 µM
[3] = curve of first compound, second compound 1 µM
[4] = curve of first compound, second compound 3.16 µM
[5] = curve of first compound, second compound 10 µM
[6] = second compound 0.1 µM, first compound 0.00316 µM
[7] = second compound 0.1 µM, first compound 0.01 µM
[8] = second compound 0.1 µM, first compound 0.0316 µM
[9] = second compound 0.1 µM, first compound 0.1 µM
[10] = second compound 0.1 µM, first compound 0.316 µM
[11] = second compound 0.1 µM, first compound 1 µM
[12] = second compound 0.316 µM, first compound 0.00316 µM
[13] = second compound 0.316 µM, first compound 0.01 µM
[14] = second compound 0.316 µM, first compound 0.0316 µM
[15] = second compound 0.316 µM, first compound 0.1 µM
[16] = second compound 0.316 µM, first compound 0.316 µM
[17] = second compound 0.316 µM, first compound 1 µM
[18] = second compound 1 µM, first compound 0.00316 µM
[19] = second compound 1 µM, first compound 0.01 µM
[20] = second compound 1 µM, first compound 0.0316 µM
[21] = second compound 1 µM, first compound 0.1 µM
[22] = second compound 1 µM, first compound 0.316 µM
[23] = second compound 1 µM, first compound 1 µM
[24] = second compound 3.16 µM, first compound 0.00316 µM
[25] = second compound 3.16 µM, first compound 0.01 µM
[26] = second compound 3.16 µM, first compound 0.0316 µM
[27] = second compound 3.16 µM, first compound 0.1 µM
[28] = second compound 3.16 µM, first compound 0.316 µM
[29] = second compound 3.16 µM, first compound 1 µM
[30] = second compound 10 µM, first compound 0.00316 µM
[31] = second compound 10 µM, first compound 0.01 µM
[32] = second compound 10 µM, first compound 0.0316 µM
[33] = second compound 10 µM, first compound 0.1 µM
[34] = second compound 10 µM, first compound 0.316 µM
[35] = second compound 10 µM, first compound 1 µM
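Note: spheroids exposed to agents for seven days before readout.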
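Throughout, for viability, T/C: 100% = DMSO vehicle control wells.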

Nc1ncn(C2CC(O)C(CO)O2)c(=O)n1 (centres undefined) + NC1CC1c1ccc(-c2cccc(O)c2)cc1
IC50 [1]: 89.4 nM
IC50 [2]: 90.3 nM
IC50 [3]: 88.5 nM
IC50 [4]: 95.3 nM
IC50 [5]: 62.8 nM
viability, T/C [6]: 102%
viability, T/C [7]: 99.1%
viability, T/C [8]: 78.3%
viability, T/C [9]: 45.8%
viability, T/C [10]: 37.3%
viability, T/C [11]: 28.2%
viability, T/C [12]: 113%
viability, T/C [13]: 95%
viability, T/C [14]: 88.4%
viability, T/C [15]: 44.2%
viability, T/C [16]: 32.9%
viability, T/C [17]: 27.9%
viability, T/C [18]: 105%
viability, T/C [19]: 105%
viability, T/C [20]: 83.4%
viability, T/C [21]: 45.8%
viability, T/C [22]: 32.5%
viability, T/C [23]: 27.1%
viability, T/C [24]: 111%
viability, T/C [25]: 108%
viability, T/C [26]: 85.5%
viability, T/C [27]: 48.4%
viability, T/C [28]: 30.6%
viability, T/C [29]: 25.1%
viability, T/C [30]: 92.4%
viability, T/C [31]: 78.3%
viability, T/C [32]: 67.8%
viability, T/C [33]: 38.3%
viability, T/C [34]: 28%
viability, T/C [35]: 26.7%

COc1cc(Nc2ncc3c(n2)-c2ccc(Cl)cc2C(c2c(F)cccc2OC)=NC3)ccc1C(=O)O + NC1CC1c1ccc(-c2cccc(O)c2)cc1
IC50 [1]: 26 nM
IC50 [2]: 69.9 nM
IC50 [3]: 53.9 nM
IC50 [4]: 57.8 nM
IC50 [5]: 42.9 nM
viability, T/C [6]: 75.4%
viability, T/C [7]: 53.7%
viability, T/C [8]: 50.2%
viability, T/C [9]: 48.7%
viability, T/C [10]: 47.5%
viability, T/C [11]: 38.7%
viability, T/C [12]: 74%
viability, T/C [13]: 54.4%
viability, T/C [14]: 55.4%
viability, T/C [15]: 51%
viability, T/C [16]: 45.8%
viability, T/C [17]: 38.2%
viability, T/C [18]: 79.1%
viability, T/C [19]: 54.5%
viability, T/C [20]: 51.8%
viability, T/C [21]: 55.4%
viability, T/C [22]: 50.4%
viability, T/C [23]: 35.2%
viability, T/C [24]: 73.2%
viability, T/C [25]: 47.5%
viability, T/C [26]: 59.6%
viability, T/C [27]: 47.5%
viability, T/C [28]: 43.7%
viability, T/C [29]: 31.1%
viability, T/C [30]: 62.1%
viability, T/C [31]: 44.7%
viability, T/C [32]: 55.1%
viability, T/C [33]: 49.1%
viability, T/C [34]: 34.4%
viability, T/C [35]: 25.4%

Nc1ncn(C2CC(O)C(CO)O2)c(=O)n1 (centres undefined) + NC1CCC(NC2CC2c2ccccc2)CC1
IC50 [1]: 24.8 nM
IC50 [2]: 46.5 nM
IC50 [3]: 27.4 nM
IC50 [4]: 19.4 nM
IC50 [5]: 11.1 nM
viability, T/C [6]: 78%
viability, T/C [7]: 75.6%
viability, T/C [8]: 43%
viability, T/C [9]: 28.6%
viability, T/C [10]: 26.1%
viability, T/C [11]: 24.2%
viability, T/C [12]: 72.8%
viability, T/C [13]: 75.7%
viability, T/C [14]: 55.2%
viability, T/C [15]: 36.7%
viability, T/C [16]: 25%
viability, T/C [17]: 22.7%
viability, T/C [18]: 89.5%
viability, T/C [19]: 73.5%
viability, T/C [20]: 46%
viability, T/C [21]: 31.4%
viability, T/C [22]: 27.8%
viability, T/C [23]: 23.3%
viability, T/C [24]: 83.2%
viability, T/C [25]: 56.7%
viability, T/C [26]: 45.3%
viability, T/C [27]: 34%
viability, T/C [28]: 23.7%
viability, T/C [29]: 21.9%
viability, T/C [30]: 80.9%
viability, T/C [31]: 50.5%
viability, T/C [32]: 36%
viability, T/C [33]: 27.5%
viability, T/C [34]: 23.3%
viability, T/C [35]: 20.4%

CC(C)c1c(-c2ccccc2)nc2c(C#N)c[nH]n2c1=O
viability, T/C (compound 0.0316 µM): 97% and 109%
viability, T/C (compound 0.1 µM): 105% and 109%
viability, T/C (compound 0.316 µM): 101% and 104%
viability, T/C (compound 1 µM): 95.7% and 105%
viability, T/C (compound 3.16 µM): 97.2% and 95.9%
viability, T/C (compound 10 µM): 85.2% and 82.5%
IC50 (curve of compound): > 10000 nM

O=C(C=Cc1cccc(S(=O)(=O)Nc2ccccc2)c1)NO + NC1CC1c1ccc(-c2cccc(O)c2)cc1
IC50 [1]: 54.8 nM
IC50 [2]: 54.7 nM
IC50 [3]: 53.8 nM
IC50 [4]: 59.5 nM
IC50 [5]: 36.4 nM
viability, T/C (second compound 0.1 µM, first compound 0.00949 µM): 76%
viability, T/C (second compound 0.1 µM, first compound 0.03 µM): 70%
viability, T/C (second compound 0.1 µM, first compound 0.0949 µM): 20.3%
viability, T/C (second compound 0.1 µM, first compound 0.3 µM): 3.17%
viability, T/C (second compound 0.1 µM, first compound 0.949 µM): 0.96%
viability, T/C (second compound 0.1 µM, first compound 3 µM): 103%
viability, T/C (second compound 0.316 µM, first compound 0.00949 µM): 76.8%
viability, T/C (second compound 0.316 µM, first compound 0.03 µM): 70.2%
viability, T/C (second compound 0.316 µM, first compound 0.0949 µM): 19.2%
viability, T/C (second compound 0.316 µM, first compound 0.3 µM): 3.03%
viability, T/C (second compound 0.316 µM, first compound 0.949 µM): 0.63%
viability, T/C (second compound 0.316 µM, first compound 3 µM): 103%
viability, T/C (second compound 1 µM, first compound 0.00949 µM): 83.1%
viability, T/C (second compound 1 µM, first compound 0.03 µM): 68.7%
viability, T/C (second compound 1 µM, first compound 0.0949 µM): 20.3%
viability, T/C (second compound 1 µM, first compound 0.3 µM): 3.41%
viability, T/C (second compound 1 µM, first compound 0.949 µM): 0.58%
viability, T/C (second compound 1 µM, first compound 3 µM): 103%
viability, T/C (second compound 3.16 µM, first compound 0.00949 µM): 77.7%
viability, T/C (second compound 3.16 µM, first compound 0.03 µM): 78.5%
viability, T/C (second compound 3.16 µM, first compound 0.0949 µM): 22.2%
viability, T/C (second compound 3.16 µM, first compound 0.3 µM): 3.57%
viability, T/C (second compound 3.16 µM, first compound 0.949 µM): 0.78%
viability, T/C (second compound 3.16 µM, first compound 3 µM): 96.6%
viability, T/C (second compound 10 µM, first compound 0.00949 µM): 81.5%
viability, T/C (second compound 10 µM, first compound 0.03 µM): 56.3%
viability, T/C (second compound 10 µM, first compound 0.0949 µM): 14.6%
viability, T/C (second compound 10 µM, first compound 0.3 µM): 3.03%
viability, T/C (second compound 10 µM, first compound 0.949 µM): 0.44%
viability, T/C (second compound 10 µM, first compound 3 µM): 58.3%

COc1ccc([C@@H](O)c2cc(-c3ncnc4cc(N5CCOCC5)ccc34)c(F)cc2Cl)nn1 + NC1CC1c1ccc(-c2cccc(O)c2)cc1
IC50 [1]: 696 nM
IC50 [2]: 741 nM
IC50 [3]: 644 nM
IC50 [4]: 547 nM
IC50 [5]: 185 nM
viability, T/C [8]: 96.6%
viability, T/C [9]: 88.1%
viability, T/C [10]: 71.4%
viability, T/C [11]: 42.1%
viability, T/C (second compound 0.1 µM, first compound 3.16 µM): 10.1%
viability, T/C (second compound 0.1 µM, first compound 10 µM): 3.99%
viability, T/C [14]: 104%
viability, T/C [15]: 93.8%
viability, T/C [16]: 87.7%
viability, T/C [17]: 36.8%
viability, T/C (second compound 0.316 µM, first compound 3.16 µM): 8.34%
viability, T/C (second compound 0.316 µM, first compound 10 µM): 3.86%
viability, T/C [20]: 106%
viability, T/C [21]: 91.9%
viability, T/C [22]: 75%
viability, T/C [23]: 36.2%
viability, T/C (second compound 1 µM, first compound 3.16 µM): 7.37%
viability, T/C (second compound 1 µM, first compound 10 µM): 4.08%
viability, T/C [26]: 94.8%
viability, T/C [27]: 83.5%
viability, T/C [28]: 67.9%
viability, T/C [29]: 32.1%
viability, T/C (second compound 3.16 µM, first compound 3.16 µM): 6.81%
viability, T/C (second compound 3.16 µM, first compound 10 µM): 4.07%
viability, T/C [32]: 71.7%
viability, T/C [33]: 62.7%
viability, T/C [34]: 38.1%
viability, T/C [35]: 21.9%
viability, T/C (second compound 10 µM, first compound 3.16 µM): 4.81%
viability, T/C (second compound 10 µM, first compound 10 µM): 3.46%

COc1cc(C2c3cc4c(cc3C(OC3OC5COC(C)OC5C(O)C3O)C3COC(=O)C23)OCO4)cc(OC)c1O (centres undefined)
viability, T/C (compound 0.00949 µM): 93.8% and 95.9%
viability, T/C (compound 0.03 µM): 85.4% and 73.6%
viability, T/C (compound 0.0949 µM): 48.8% and 24.1%
viability, T/C (compound 0.3 µM): 13.5% and 6.74%
viability, T/C (compound 0.949 µM): 7.1% and 4.19%
viability, T/C (compound 3 µM): 4.85% and 3.34%
IC50 (curve of compound): 91 nM and 52 nM
